Test results: patent publication US7763292B2, “Cancer cell growth inhibition by black bean (Phaseolus vulgaris L) extracts” (Instituto Technologico y de Estudios Superiores de Monterrey, priority 2004, dated 2010)
One block for each compound: values may come before it.

Legend:
[1] = system: Human hormone dependent mammary cancer cells (MCF-7); test: MCF-7 growth inhibition bioassay of quercetin and flavonol-rich black bean extract; format: cell-based; details: quercetin alone
Source text: Human hormone dependent mammary cancer cells (MCF-7) were used to conduct bioassays to test growth inhibitory effects of commercially available quercetin alone and in presence of other flavonols and phytochemicals found in black bean extracts described in Table 2.

MCF-7 cells = details: cited from earlier work
[2] = literature (Dávalos, 2004); cited from earlier work
[3] = system: hormone dependent mammary cancer cells MCF-7; test: MCF-7 proliferation in hormone-free serum, 13 days incubation; format: cell-based
Protocol: Methanol extracts of raw and 5-day malted NG-Perla black beans were obtained by the methods described in Examples 2 and 8, respectively, and used to test their effects on hormone dependent mammary cancer cell proliferation (MCF-7).
Since isoflavones found in black beans may show estrogenic activity, and MCF-7 are hormone dependent mammary cancer cells; tests were conducted in hormone-free serum to discard the possibility of enhanced proliferation instead of inhibition. […] Thus, MCF-7 cells were first cultured with purified commercial standards of genistein (Indofine Chemical Company, Hillsborough, N.J.) and genistin (Sigma-Aldrich Chem. Co., St. Louis, Mo.) as positive controls with the aim of testing their effects on proliferation of this cancer cell line.

Structure (SMILES): O=c1c(O)c(-c2ccc(O)c(O)c2)oc2cc(O)cc(O)c12 [Quercetin]
inhibitory effect on MCF-7 growth [1]: did not have any inhibitory effect
IC50 (MCF-7 cells; regular serum conditions (Rodgers, 1998), read-out: concentration needed to inhibit 50% of MCF-7 cancer cells): ≥ 200 µM
antioxidant value [2]: 10.5 TE

IC50 ([3]; Homo sapiens, MCF7, 312 h, 13 days incubation, estimated by curve fit to FIG. 12, read-out: concentration required to lower the cell population doublings from 6 to 3 (50% inhibition)): 18.5 µM
Structure (SMILES): O=c1c(-c2ccc(O)cc2)coc2cc(O)cc(O)c12 [genistein]

Structure (SMILES): O=c1c(-c2ccc(O)cc2)coc2cc(O[C@@H]3O[C@H](CO)[C@@H](O)[C@H](O)[C@H]3O)cc(O)c12 [genistin]
proliferation inhibition of MCF-7 ([3]; even at concentrations higher than 20 μM): did not show proliferation inhibition

Structure (SMILES): COc1ccc(O)c(C(C)(C)C)c1 [BHA, butylated hydroxyanisole]
antioxidant value [2]: 2.43 TE

Structure (SMILES): O=c1c(O)c(-c2cc(O)c(O)c(O)c2)oc2cc(O)cc(O)c12 [myricetin]
inhibition of MCF-7 cells (MCF-7 cells; regular serum conditions): do not inhibit

Structure (SMILES): O=C(O)/C=C/c1ccc(O)c(O)c1 [caffeic acid]
antioxidant value [2]: 6.63 TE
